The values that follow come from PMC3849818 (Journal of medicinal chemistry, 2013).

In general, IC50 refers to the midpoint of a concentration-inhibition curve. Broadly, the Kd is the free concentration of one partner at which half of the binding sites on the other are occupied at equilibrium, for simple one-to-one binding.

Molecules are shown by their SMILES.

Data set [1] relates to rats. As to the kind of experiment: Conditioned place preference. Format: in vivo, Sprague-Dawley rats.
For data set [2] the following is noted: 2-methylbenzoxazole undergoes ring opening under acidic conditions; cited from earlier work.
Another data set relates to OX1. Conditions: read-out: IC50 OX1; cited from earlier work.
In the next data set the target is T1, orexin 1 (OX1) receptor (Homo sapiens, UniProt O43613).
T1 sequence (O43613 1-425): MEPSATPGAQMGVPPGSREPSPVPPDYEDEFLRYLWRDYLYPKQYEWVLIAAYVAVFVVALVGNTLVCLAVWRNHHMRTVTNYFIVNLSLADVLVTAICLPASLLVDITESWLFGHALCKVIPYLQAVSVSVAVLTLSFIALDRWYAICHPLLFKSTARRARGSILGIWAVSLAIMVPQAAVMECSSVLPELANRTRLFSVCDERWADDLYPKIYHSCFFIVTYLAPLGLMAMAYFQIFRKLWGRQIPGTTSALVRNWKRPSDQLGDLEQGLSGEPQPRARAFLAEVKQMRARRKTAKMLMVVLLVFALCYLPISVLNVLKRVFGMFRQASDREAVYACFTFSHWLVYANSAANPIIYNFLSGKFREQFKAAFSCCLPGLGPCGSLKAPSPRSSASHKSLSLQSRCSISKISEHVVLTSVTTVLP
As to the kind of experiment: OX1 calcium mobilization functional assay. Format: cell-based. Conditions: for OX2/OX1: ratio of Ke values. (In general: A change in cytosolic calcium serves as a functional read-out for many receptors and channels.)

A further data set deals with T2, OX2 receptor (Homo sapiens, UniProt O43614).
T2 sequence (O43614 1-444): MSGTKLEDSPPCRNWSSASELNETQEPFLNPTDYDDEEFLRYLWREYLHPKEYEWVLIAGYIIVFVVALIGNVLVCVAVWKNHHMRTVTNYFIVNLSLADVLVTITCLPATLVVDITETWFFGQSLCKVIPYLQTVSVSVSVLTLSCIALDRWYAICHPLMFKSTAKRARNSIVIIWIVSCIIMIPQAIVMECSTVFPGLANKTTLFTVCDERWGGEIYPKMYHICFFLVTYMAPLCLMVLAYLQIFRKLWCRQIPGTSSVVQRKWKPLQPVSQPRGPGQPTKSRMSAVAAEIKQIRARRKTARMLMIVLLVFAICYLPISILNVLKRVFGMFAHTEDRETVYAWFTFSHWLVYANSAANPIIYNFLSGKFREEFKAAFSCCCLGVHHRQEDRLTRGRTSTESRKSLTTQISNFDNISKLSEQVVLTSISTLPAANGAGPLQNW
Put plainly: OX2 calcium mobilization functional assay. Type of data set: cell-based.

The subject of data set [3] is rats. Put plainly: Drug discrimination assay. Format: in vivo. Conditions: 10 min pretreatment, data not shown.
For the next data set, the system named is OX2. Conditions: read-out: IC50 OX2; Actelion high throughput screening hit; cited from earlier work.

For the compound `COC(=O)[C@H]1[C@@H](OC(=O)c2ccccc2)C[C@@H]2CC[C@H]1N2C` [Cocaine, reference compound], in the data set with rats [1] (10 mg/kg i.p., n=8-9), the “CPP produced by drug alone” value was “induced robust and significant CPP”.
As to `Cc1nc2ccc(NC(=O)Nc3ccnc4cccnc34)cc2o1.Cl` [Compound 1], in data set [2], the hydrolytic stability entry was “hydrolytic instability”.
On to `COc1ccc(C[C@H]2c3cc(OC)c(OC)cc3CCN2[C@@H](C(=O)NC(C)C)c2ccccc2)cc1OC` [ACT-335827, reference compound], for which the half-inhibitory concentration (IC50) in the data set on OX1 was 0.006 µM.
`CCCCCC(=O)Nc1ccc(CNC(=O)CN2CCc3cc(OC)c(OC)cc3C2Cc2ccc(OC)c(OC)c2)cc1` (centres unmarked) [Compound 58, N-{4-[(2-{1-[(3,4-dimethoxyphenyl)methyl]-6,7-dimethoxy-1,2,3,4-tetrahydroisoquinolin-2-yl}acetamido)methyl]phenyl}hexanamide]: on orexin 1 (OX1) receptor, the OX2/OX1 is listed as less than 0.4. Moreover, at OX2 receptor, the Kd turned out to be 3.79 ± 0.67 µM.
As for `COc1ccc(CC2c3cc(OS(=O)(=O)C(F)(F)F)c(OC)cc3CCN2CC(=O)NCc2ccccc2)cc1OC` (centres unmarked) [Compound 27, 2-[(benzylcarbamoyl)methyl]-1-[(3,4-dimethoxyphenyl)methyl]-6-methoxy-1,2,3,4-tetrahydroisoquinolin-7-yl trifluoromethanesulfonate], on orexin 1 (OX1) receptor, the OX2/OX1 is on record as greater than 1000. On OX2 receptor, the Kd was greater than 10 µM.
For `CCCC(=O)Oc1cc2c(cc1OC)CCN(CC(=O)NCc1ccccc1)C2Cc1ccc(OC)c(OC)c1` (centres unmarked) [Compound 25, 2-[(benzylcarbamoyl)methyl]-1-[(3,4-dimethoxyphenyl)methyl]-6-methoxy-1,2,3,4-tetrahydroisoquinolin-7-yl butanoate], on orexin 1 (OX1) receptor, the OX2/OX1 is reported as greater than 127. Besides, at OX2 receptor, the dissociation constant Kd is greater than 10 µM.
On to `CCOc1cc2c(cc1OC)CCN(CC(=O)NCc1ccccc1)C2Cc1ccc(OC)c(OC)c1` (centres unmarked) [Compound 12, N-benzyl-2-{1-[(3,4-dimethoxyphenyl)methyl]-7-ethoxy-6-methoxy-1,2,3,4-tetrahydroisoquinolin-2-yl}acetamide], for which the OX2/OX1 on orexin 1 (OX1) receptor is reported as greater than 333. Further, on OX2 receptor, the Kd is greater than 10 µM.
On to `CCCOc1cc2c(cc1OC)CCN(CC(=O)NCc1ccccc1)C2Cc1ccc(OC)c(OC)c1` (centres unmarked) [Compound 13, N-benzyl-2-{1-[(3,4-dimethoxyphenyl)methyl]-6-methoxy-7-propoxy-1,2,3,4-tetrahydroisoquinolin-2-.yl}acetamide], for which, at orexin 1 (OX1) receptor, the OX2/OX1 is listed as greater than 578. At OX2 receptor, the dissociation constant (Kd) was greater than 10 µM.
Taken in the same sequence, the figures for `CCOc1cc2c(cc1OC)CCN(CC(=O)NCc1cccnc1)C2Cc1ccc(OC)c(OC)c1` (centres unmarked) [Compound 74, 2-{1-[(3,4-dimethoxyphenyl)methyl]-7-ethoxy-6-methoxy-1,2,3,4-tetrahydroisoquinolin-2-yl}-N-(pyridin-3-ylmethyl)acetamide] were greater than 637 and greater than 10 µM.
Regarding `COc1ccc(CC2c3cc(OCC(F)(F)F)c(OC)cc3CCN2CC(=O)NCc2cccnc2)cc1OC` (centres unmarked) [Compound 72, 2-{1-[(3,4-dimethoxyphenyl)methyl]-6-methoxy-7-(2,2,2-trifluoroethoxy)-1,2,3,4-tetrahydroisoquinolin-2-yl}-N-(pyridin-3-ylmethyl)acetamide], the “behavioral activity in drug discrimination” value with rats [3] is on record as “behaviorally active”. The OX2/OX1 at orexin 1 (OX1) receptor is given as greater than 1180. Besides, the “effect on development of place preference induced by cocaine” value in the data set on rats [1] (20 mg/kg i.p. 10 min before cocaine 10 mg/kg, P < 0.05 vs cocaine) is “significantly attenuated”. In addition, the “CPP produced by compound alone” value with rats [1] (20 mg/kg i.p., n=8-9) is on record as “did not produce CPP or place aversion”. The Kd on OX2 receptor is greater than 10 µM.
`COc1ccc(CC2c3cc(OC)c(OC)cc3CCN2CC(=O)NCc2ccccc2)cc1OC` (centres unmarked) [Compound 6, N-benzyl-2-{1-[(3,4-dimethoxyphenyl)methyl]-6,7-dimethoxy-1,2,3,4-tetrahydroisoquinolin-2-yl}acetamide]: the concentration for half-maximal inhibition (IC50) with OX2 was 8.1 µM. For the same compound, at OX2 receptor, the Kd is greater than 10 µM.
For the compound `CCCOc1cc2c(cc1OC)CCN(CC(=O)NCc1ccccn1)C2Cc1ccc(OC)c(OC)c1` (centres unmarked) [Compound 69, 2-{1-[(3,4-dimethoxyphenyl)methyl]-6-methoxy-7-propoxy-1,2,3,4-tetrahydroisoquinolin-2-yl}-N-(pyridin-2-ylmethyl)acetamide], on orexin 1 (OX1) receptor, the OX2/OX1 is given as greater than 485. Moreover, the Kd at OX2 receptor was greater than 10 µM.
`COc1ccc(CC2c3cc(OCC(F)(F)F)c(OC)cc3CCN2CC(=O)NCc2ccccc2)cc1OC` (centres unmarked) [Compound 28, N-benzyl-2-{1-[(3,4-dimethoxyphenyl)methyl]-6-methoxy-7-(2,2,2-trifluoroethoxy)-1,2,3,4-tetrahydroisoquinolin-2-yl}acetamide]: at orexin 1 (OX1) receptor, the “selectivity over the OX2 receptor” value is “over 1000 fold” and the OX2/OX1 was greater than 1060. For the same compound, the equilibrium dissociation constant (Kd) at OX2 receptor is greater than 10 µM.
Take `COc1ccc(CC2c3cc(OC)c(OC)cc3CCN2CC(=O)N[C@@H](C)c2ccccc2)cc1OC` (stereo partly drawn) [Compound 49, 2-{1-[(3,4-dimethoxyphenyl)methyl]-6,7-dimethoxy-1,2,3,4-tetrahydroisoquinolin-2-yl}-N-[(1S)-1-phenylethyl]acetamide]: on orexin 1 (OX1) receptor (at 10 μM), the “OX1 activity in words” value was “inactive”. In addition, the “OX2 activity in words” value at OX2 receptor (at 10 μM) was “inactive”.
